Converted amounts (≈) assume the structure as drawn. Values belong to the molecule of their own block, whether it stands above or below them.
Experiments:
Trypsin = Trypsin (Homo sapiens, UniProt P07477+P07478+P35030); assay: Inhibition of trypsin (unknown origin); type: protein assay
Staphylococcus aureus [1] = assay: Antibacterial activity against Staphylococcus aureus assessed as diameter zone of inhibition; type: functional
Bacillus subtilis = assay: Antibacterial activity against Bacillus subtilis assessed as diameter zone of inhibition; type: functional
Escherichia coli [2] = assay: Antibacterial activity against Escherichia coli assessed as diameter zone of inhibition; type: functional
Pseudomonas aeruginosa [3] = assay: Antibacterial activity against Pseudomonas aeruginosa assessed as diameter zone of inhibition; type: functional
Salmonella typhimurium = assay: Antibacterial activity against Salmonella typhimurium assessed as diameter zone of inhibition; type: functional, Salmonella enterica subsp. enterica serovar Typhimurium
Streptococcus pneumoniae = assay: Antibacterial activity against Streptococcus pneumoniae assessed as diameter zone of inhibition; type: functional
Pseudomonas aeruginosa [4] = assay: Antibacterial activity against Pseudomonas aeruginosa; type: functional
Escherichia coli [5] = assay: Antibacterial activity against Escherichia coli; type: functional
Staphylococcus aureus [6] = assay: Antibacterial activity against Staphylococcus aureus; type: functional
Klebsiella pneumoniae = assay: Antibacterial activity against Klebsiella pneumoniae; type: functional
[7] = Inhibition of Escherichia coli topoisomerase 4
[8] = Lipophilicity, logD of compound; type: physicochemical; details: octanol/water
[9] = biological target: Voltage-gated inwardly rectifying potassium channel KCNH2 (Homo sapiens, UniProt Q12809); assay: Inhibition of hERG; type: toxicity
Sequence of Voltage-gated inwardly rectifying potassium channel KCNH2 (Q12809 whole entry): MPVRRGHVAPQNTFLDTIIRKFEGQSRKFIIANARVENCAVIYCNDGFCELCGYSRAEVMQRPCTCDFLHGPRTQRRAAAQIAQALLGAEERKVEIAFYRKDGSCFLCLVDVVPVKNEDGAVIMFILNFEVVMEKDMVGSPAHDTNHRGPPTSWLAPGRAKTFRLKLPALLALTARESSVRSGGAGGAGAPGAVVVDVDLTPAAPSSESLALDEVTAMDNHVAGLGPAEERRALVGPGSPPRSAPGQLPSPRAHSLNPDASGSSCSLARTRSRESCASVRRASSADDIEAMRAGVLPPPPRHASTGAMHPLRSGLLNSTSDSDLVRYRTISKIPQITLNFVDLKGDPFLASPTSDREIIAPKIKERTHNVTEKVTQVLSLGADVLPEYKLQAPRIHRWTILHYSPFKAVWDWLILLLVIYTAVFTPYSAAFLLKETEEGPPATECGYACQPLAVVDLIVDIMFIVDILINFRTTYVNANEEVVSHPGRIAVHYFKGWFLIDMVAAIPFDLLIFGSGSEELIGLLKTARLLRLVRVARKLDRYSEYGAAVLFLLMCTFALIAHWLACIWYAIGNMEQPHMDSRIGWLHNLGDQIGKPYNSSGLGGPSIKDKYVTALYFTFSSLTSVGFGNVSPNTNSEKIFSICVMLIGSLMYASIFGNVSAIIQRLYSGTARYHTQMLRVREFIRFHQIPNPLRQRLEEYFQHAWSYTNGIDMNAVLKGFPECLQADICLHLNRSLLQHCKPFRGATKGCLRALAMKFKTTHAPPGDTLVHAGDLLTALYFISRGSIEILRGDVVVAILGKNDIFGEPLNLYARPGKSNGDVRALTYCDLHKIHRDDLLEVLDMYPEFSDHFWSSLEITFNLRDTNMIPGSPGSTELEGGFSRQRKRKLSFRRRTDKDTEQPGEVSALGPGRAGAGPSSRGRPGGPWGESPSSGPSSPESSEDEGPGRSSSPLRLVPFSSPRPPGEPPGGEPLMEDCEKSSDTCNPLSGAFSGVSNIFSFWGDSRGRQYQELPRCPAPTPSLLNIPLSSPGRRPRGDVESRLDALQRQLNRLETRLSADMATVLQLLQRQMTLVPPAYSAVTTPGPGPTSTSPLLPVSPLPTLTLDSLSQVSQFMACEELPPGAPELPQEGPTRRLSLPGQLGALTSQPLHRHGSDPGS

[10] = Dissociation constant, pKa of the compound; type: physicochemical
[11] = biological target: T1, Glutamate receptor ionotropic AMPA (Homo sapiens, UniProt P42261+P42262+P42263+P48058); assay: Displacement of [3H]AMPA from AMPA receptor (unknown origin); type: protein-complex assay
[12] = Displacement of [3H]glycine from AMPA receptor (unknown origin); type: protein-complex assay, Homo sapiens
[13] = biological target: T1, Glutamate receptor ionotropic AMPA; assay: Displacement of [3H]kainic acid from AMPA receptor (unknown origin); type: protein-complex assay
[14] = biological target: Glutamate [NMDA] receptor; assay: Displacement of [3H]MK-801 from NMDA receptor (unknown origin); type: protein-complex assay, Homo sapiens
[15] = biological target: T1, Glutamate receptor ionotropic AMPA; assay: Antagonist activity at AMPA receptor (unknown origin) assessed as AMPA-induced depolarizations; type: protein-complex assay
[16] = biological target: Glutamate [NMDA] receptor; assay: Antagonist activity at NMDA receptor (unknown origin) assessed as NMDA-induced depolarizations; type: protein-complex assay, Homo sapiens
Glutamate receptor 2 = Glutamate receptor 2 (Homo sapiens, UniProt P42262); assay: Binding affinity to GluA2 receptor (unknown origin)
Sequence of Glutamate receptor 2 (P42262 whole entry): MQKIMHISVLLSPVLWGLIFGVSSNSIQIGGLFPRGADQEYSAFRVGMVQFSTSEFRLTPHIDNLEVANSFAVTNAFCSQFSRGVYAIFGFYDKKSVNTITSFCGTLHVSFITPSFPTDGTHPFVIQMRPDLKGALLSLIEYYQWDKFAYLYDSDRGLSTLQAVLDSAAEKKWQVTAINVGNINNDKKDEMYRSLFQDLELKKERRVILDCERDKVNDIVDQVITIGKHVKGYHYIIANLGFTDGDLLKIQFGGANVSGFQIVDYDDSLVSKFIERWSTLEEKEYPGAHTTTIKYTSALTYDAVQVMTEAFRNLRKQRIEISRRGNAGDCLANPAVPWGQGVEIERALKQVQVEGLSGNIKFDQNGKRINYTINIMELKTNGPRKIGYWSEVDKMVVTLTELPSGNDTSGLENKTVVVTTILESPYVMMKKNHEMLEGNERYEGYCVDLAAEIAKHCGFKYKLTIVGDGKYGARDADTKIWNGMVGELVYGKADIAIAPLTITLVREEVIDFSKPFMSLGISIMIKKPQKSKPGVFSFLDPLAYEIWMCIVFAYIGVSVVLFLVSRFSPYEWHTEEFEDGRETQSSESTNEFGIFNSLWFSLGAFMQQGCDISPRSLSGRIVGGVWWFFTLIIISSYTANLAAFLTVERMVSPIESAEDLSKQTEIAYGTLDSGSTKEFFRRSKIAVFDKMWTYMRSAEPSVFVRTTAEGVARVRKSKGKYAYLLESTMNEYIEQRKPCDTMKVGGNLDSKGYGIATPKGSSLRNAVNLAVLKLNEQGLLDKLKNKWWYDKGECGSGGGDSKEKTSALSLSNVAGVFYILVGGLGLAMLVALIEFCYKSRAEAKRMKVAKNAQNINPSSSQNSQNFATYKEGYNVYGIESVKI

[17] = biological target: Glutamate receptor ionotropic, kainate 2 (Homo sapiens, UniProt Q13002); assay: Binding affinity to GluK2 receptor (unknown origin)
Sequence of Glutamate receptor ionotropic, kainate 2 (Q13002 whole entry): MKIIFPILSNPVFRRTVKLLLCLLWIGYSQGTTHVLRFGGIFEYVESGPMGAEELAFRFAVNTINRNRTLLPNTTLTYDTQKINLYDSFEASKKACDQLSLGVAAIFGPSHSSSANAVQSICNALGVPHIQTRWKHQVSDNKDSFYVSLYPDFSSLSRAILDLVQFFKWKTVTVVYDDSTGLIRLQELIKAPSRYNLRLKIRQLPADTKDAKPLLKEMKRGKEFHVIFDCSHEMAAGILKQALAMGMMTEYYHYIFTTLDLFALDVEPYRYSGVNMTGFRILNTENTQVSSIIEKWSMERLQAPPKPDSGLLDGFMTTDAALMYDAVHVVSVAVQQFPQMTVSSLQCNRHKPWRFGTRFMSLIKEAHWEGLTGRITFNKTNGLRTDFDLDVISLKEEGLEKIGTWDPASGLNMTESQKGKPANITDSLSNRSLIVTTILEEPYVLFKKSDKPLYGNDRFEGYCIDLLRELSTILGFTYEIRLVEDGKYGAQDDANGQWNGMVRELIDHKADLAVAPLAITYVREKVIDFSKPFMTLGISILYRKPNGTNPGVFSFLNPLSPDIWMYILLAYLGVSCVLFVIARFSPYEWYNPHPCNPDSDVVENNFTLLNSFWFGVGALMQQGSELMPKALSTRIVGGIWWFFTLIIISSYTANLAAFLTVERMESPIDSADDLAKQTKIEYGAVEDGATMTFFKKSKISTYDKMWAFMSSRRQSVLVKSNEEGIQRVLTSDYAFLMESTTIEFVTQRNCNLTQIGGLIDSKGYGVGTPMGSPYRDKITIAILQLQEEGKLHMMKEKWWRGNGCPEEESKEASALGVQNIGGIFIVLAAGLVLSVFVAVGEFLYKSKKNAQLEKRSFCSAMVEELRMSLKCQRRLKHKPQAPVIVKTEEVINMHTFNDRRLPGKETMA

[18] = biological target: T2, Glutamate receptor ionotropic, kainate 5 (Homo sapiens, UniProt Q16478); assay: Binding affinity to GluK5 receptor (unknown origin)
T2 sequence (Q16478 whole entry): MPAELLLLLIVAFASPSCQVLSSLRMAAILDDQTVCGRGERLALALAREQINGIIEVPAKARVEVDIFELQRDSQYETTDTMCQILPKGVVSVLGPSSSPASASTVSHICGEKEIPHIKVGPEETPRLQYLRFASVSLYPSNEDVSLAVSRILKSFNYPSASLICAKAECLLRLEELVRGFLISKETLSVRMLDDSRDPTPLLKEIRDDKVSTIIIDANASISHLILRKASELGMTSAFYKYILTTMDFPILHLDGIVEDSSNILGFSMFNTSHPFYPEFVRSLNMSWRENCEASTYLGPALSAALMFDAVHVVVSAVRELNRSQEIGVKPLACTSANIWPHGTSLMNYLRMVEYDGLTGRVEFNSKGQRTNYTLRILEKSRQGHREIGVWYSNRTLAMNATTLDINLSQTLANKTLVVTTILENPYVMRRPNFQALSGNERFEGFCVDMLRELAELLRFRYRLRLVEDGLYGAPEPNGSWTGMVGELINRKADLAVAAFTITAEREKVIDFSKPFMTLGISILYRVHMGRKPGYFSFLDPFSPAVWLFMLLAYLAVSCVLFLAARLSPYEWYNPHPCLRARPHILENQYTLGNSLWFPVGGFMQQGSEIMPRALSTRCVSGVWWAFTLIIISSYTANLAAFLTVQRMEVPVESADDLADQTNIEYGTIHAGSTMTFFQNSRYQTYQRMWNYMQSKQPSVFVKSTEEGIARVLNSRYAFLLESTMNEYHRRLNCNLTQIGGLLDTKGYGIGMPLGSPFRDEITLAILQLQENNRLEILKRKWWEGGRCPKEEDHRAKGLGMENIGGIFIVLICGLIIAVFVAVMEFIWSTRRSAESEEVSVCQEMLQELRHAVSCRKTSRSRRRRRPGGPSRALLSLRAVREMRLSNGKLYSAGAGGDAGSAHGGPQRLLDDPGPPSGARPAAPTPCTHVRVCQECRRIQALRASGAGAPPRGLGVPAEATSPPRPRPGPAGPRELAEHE

[19] = biological target: Glutamate receptor ionotropic, kainate 1 (Homo sapiens, UniProt P39086); assay: Binding affinity to GluK1 receptor (unknown origin)
Sequence of Glutamate receptor ionotropic, kainate 1 (P39086 whole entry): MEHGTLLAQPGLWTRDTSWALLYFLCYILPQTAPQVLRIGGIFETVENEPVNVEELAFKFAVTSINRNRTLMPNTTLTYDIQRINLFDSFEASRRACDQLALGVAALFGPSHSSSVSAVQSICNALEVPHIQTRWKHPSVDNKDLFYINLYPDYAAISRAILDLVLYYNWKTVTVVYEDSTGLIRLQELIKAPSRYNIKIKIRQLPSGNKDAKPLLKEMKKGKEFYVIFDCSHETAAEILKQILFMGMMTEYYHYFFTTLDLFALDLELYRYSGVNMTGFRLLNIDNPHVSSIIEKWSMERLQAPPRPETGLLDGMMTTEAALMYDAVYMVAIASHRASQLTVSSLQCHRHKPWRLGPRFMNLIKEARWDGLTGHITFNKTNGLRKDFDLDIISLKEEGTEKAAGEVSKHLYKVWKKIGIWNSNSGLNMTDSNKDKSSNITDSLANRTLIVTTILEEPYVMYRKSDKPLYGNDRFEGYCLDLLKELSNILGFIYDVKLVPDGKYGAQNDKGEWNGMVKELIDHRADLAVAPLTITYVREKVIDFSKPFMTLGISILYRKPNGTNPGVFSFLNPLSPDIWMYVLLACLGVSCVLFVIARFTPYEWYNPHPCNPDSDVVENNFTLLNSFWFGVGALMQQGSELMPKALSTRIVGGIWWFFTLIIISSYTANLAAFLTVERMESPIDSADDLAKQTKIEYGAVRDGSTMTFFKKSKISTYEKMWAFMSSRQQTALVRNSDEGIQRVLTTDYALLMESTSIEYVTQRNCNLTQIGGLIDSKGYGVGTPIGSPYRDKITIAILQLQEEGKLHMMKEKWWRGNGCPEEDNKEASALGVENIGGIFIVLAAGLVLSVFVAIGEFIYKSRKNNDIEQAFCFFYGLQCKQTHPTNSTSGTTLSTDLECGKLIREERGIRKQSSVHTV

[20] = biological target: Glutamate [NMDA] receptor; assay: Displacement of [3H]DCKA from NMDA receptor (unknown origin); type: protein-complex assay, Homo sapiens
[21] = biological target: Glutamate [NMDA] receptor (Homo sapiens) (UniProt Q05586+Q12879+Q13224+O15399+O60391+Q14957+Q8TCU5); assay: Displacement of [3H]DCKA from NMDA receptor (unknown origin) at 10 ng/ml relative to control; type: protein-complex assay; details: filed as antagonist
[22] = Cytotoxicity against mock-infected human MT4 cells; type: toxicity, cell-based
Toxoplasma gondii = assay: Anti-tachyzoite activity against Toxoplasma gondii at 100 uM; type: functional, type III
Alpha amylase = biological target: T3, Alpha amylase (Homo sapiens, UniProt P0DUB6); assay: Inhibition of alpha-amylase (unknown origin)
T3 sequence (P0DUB6 whole entry): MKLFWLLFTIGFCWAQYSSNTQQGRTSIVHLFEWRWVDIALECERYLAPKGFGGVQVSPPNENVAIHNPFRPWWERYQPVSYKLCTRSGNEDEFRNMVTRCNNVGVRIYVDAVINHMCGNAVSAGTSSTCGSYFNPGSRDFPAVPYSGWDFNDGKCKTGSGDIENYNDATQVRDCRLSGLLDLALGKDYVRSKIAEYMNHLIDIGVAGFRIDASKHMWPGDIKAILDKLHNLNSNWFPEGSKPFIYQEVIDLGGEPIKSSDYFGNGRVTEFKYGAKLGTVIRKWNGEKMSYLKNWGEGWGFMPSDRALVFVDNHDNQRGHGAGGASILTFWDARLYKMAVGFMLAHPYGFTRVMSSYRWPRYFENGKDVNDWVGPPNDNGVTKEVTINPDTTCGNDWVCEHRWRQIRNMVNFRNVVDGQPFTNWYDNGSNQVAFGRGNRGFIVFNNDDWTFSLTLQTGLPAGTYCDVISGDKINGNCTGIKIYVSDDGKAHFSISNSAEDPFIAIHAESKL

[23] = biological target: Phospholipase A2, major isoenzyme (Sus scrofa, UniProt P00592); assay: Inhibition of porcine PLA2G1B
Sequence of Phospholipase A2, major isoenzyme (P00592 whole entry): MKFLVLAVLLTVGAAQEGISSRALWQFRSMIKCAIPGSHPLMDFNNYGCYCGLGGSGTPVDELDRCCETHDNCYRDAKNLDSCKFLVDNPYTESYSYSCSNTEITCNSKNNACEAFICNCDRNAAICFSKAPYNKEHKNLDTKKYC

[24] = biological target: T4, Phospholipase A2, membrane associated (Homo sapiens, UniProt P14555); assay: Inhibition of human PLA2G2A
T4 sequence (P14555 whole entry): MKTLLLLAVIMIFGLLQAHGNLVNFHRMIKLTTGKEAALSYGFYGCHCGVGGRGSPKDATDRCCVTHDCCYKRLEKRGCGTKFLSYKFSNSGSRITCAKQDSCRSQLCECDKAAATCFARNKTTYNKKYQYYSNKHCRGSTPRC

Phospholipase A2 group V = biological target: T5, Phospholipase A2 group V (Homo sapiens, UniProt P39877); assay: Inhibition of human PLA2G5
T5 sequence (P39877 whole entry): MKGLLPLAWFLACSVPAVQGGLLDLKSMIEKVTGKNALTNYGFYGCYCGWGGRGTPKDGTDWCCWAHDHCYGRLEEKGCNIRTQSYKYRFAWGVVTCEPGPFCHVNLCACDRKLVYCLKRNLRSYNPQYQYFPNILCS

[25] = biological target: T6, Group 10 secretory phospholipase A2 (Homo sapiens, UniProt O15496); assay: Inhibition of human PLA2G10
T6 sequence (O15496 whole entry): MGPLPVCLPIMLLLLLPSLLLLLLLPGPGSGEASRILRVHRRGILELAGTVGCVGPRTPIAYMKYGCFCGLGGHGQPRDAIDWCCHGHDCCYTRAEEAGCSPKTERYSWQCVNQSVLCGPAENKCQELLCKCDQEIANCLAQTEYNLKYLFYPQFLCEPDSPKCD

[26] = biological target: T7, Group XIIA secretory phospholipase A2 (Homo sapiens, UniProt Q9BZM1); assay: Inhibition of human PLA2G12A
T7 sequence (Q9BZM1 whole entry): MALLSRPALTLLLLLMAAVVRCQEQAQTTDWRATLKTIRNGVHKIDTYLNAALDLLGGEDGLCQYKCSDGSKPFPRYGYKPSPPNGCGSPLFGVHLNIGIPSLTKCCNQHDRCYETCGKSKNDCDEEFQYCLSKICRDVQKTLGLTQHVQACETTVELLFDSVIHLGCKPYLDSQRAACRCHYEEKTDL

- IC50 (Trypsin): 0.55 µM
SMILES: Cn1c(=O)c(Cc2ccc(C(=N)N)cc2)nc2cc(C3(N(C(=O)CC(=O)O)C4CCCC4)CC3)ccc21

- MIC (Pseudomonas aeruginosa [4]): 0.5 µg/mL (≈ 1.07 µM)
- MIC90 (Pseudomonas aeruginosa [4]): 4 µg/mL (≈ 8.56 µM)
- MIC (Escherichia coli [5]): < 0.06 µg/mL
- MIC90 (Escherichia coli [5]): 1 µg/mL (≈ 2.14 µM)
- MIC (Staphylococcus aureus [6]): 1 µg/mL
- MIC90 (Klebsiella pneumoniae): 16 µg/mL (≈ 34.2 µM)
- IC50 [7]: 0.003 µM
- logD [8]: -0.32
- pKa [10]: 7.28
SMILES: N[C@H](Cn1c(=O)cnc2ccc(F)cc21)[C@H]1CC[C@H](NCc2ncc3c(n2)NC(=O)CO3)CC1
- IC50 [9]: > 333 µM

- Ki [11]: 0.86 µM
- Ki [12]: 0.86 µM
- IC50 [13]: 36 µM
- IC50 [14]: 11.7 µM
- IC50 [15]: 3 µM
- IC50 [16]: 52 µM
SMILES: O=C(O)c1nc2c(O)nc3cc(Cl)c(-n4cccc4)cc3n2n1

- Ki (Glutamate receptor 2): 37.4 µM
- Ki [17]: 9.78 µM
- Ki [18]: 100 µM
SMILES: O=C(Nn1c(=O)c(=O)[nH]c2cc(C#CCO)ccc21)c1ccccc1

- IC50 (Trypsin): 2.4 µM
SMILES: Cn1c(=O)c(Cc2ccc(C(=N)N)cc2)nc2cc(C3(C(=O)N4CCCC4C(=O)NCC(=O)O)CC3)ccc21 (stereo unspecified)

- Ki (Glutamate receptor 2): 23.6 µM
- Ki [19]: > 100 µM
- Ki [17]: 100 µM
- Ki [18]: > 100 µM
SMILES: O=C(Nn1c(=O)c(=O)[nH]c2cc(C#Cc3ccccc3)ccc21)c1ccccc1

- Ki [20]: 0.0066 µM
- Activity [21]: 79.3%
SMILES: O=C(CC1CCc2cc(Cl)cc3[nH]c(=O)c(=O)n1c23)Nc1ccccc1 (stereo unspecified)

The next lines start with the molecule.

SMILES: Cc1ccccc1NCC(=O)N1CC(=O)Nc2ccccc21
- diameter of the inhibition zone (DIZ) (Staphylococcus aureus [1]): 15 mm
- diameter of the inhibition zone (DIZ) (Bacillus subtilis): 15 mm
- diameter of the inhibition zone (DIZ) (Escherichia coli [2]): 15 mm
- diameter of the inhibition zone (DIZ) (Pseudomonas aeruginosa [3]): 12 mm
- diameter of the inhibition zone (DIZ) (Salmonella typhimurium): 9 mm
- diameter of the inhibition zone (DIZ) (Streptococcus pneumoniae): 10 mm

SMILES: O=C1CN(C(=O)CNc2cccc(Cl)c2)c2ccccc2N1
- diameter of the inhibition zone (DIZ) (Escherichia coli [2]): 9 mm
- diameter of the inhibition zone (DIZ) (Salmonella typhimurium): 9 mm

SMILES: O=c1[nH]c2ccc(Cl)c(Cl)c2nc1C(F)(F)F
- MBC (Staphylococcus aureus [6]): 200 µM (≈ 56.6 µg/mL)
- MIC (Staphylococcus aureus [6]): 33 µM
- CC50 [22]: 108 µM

SMILES: O=C1CN(CCCCCN2CCCCC2)c2ccc([N+](=O)[O-])cc2N1
- Activity (Toxoplasma gondii): 92%

SMILES: O=c1[nH]c2ccccc2n2c(-c3ccc([N+](=O)[O-])cc3[N+](=O)[O-])ccc12
- IC50 (Alpha amylase): 806.19 µM
- IC50 [23]: 13.6 µM
- IC50 [24]: 0.76 µM
- IC50 (Phospholipase A2 group V): 1.53 µM
- IC50 [25]: 1.05 µM
- IC50 [26]: 2.58 µM

SMILES: O=c1[nH]c2ccc(Cl)c(Cl)c2nc1CBr
- CC50 [22]: 24 µM
